Measurements as given in article PMC12313019, “Fibrotic lung ECM upregulates SDC4/integrin-αvβ1 interaction and the interfering peptide SDC4_87-131 and its derivative peptides alleviate pulmonary fibrosis” (Regenerative Biomaterials, 2025).

How the values were obtained:
[1] = test system: BLM-induced PF, C57BL/6J mice; experiment: BLM-induced PF in mice: RT-PCR of lung tissue; format: in vivo, mouse; details: BLM lung tissue
Method: (§1) After the mice were anesthetized (1% sodium pentobarbital 50 mg/kg was injected intraperitoneally), 150 μL of bleomycin (BLM, 5 mg/mL, BIO-000001) was inhaled into the lungs of the mice by tracheal inhalation instillation. One day later, the mice were randomly divided into model and drug treatment groups, and the mice in the control group were only subjected to saline inhalation.
(§2) Based on the dosage of SDC2 fragment peptide and our experimental results (Supplementary Figure S10A and B), the dosage schedule of SDC4_87-131 was set as follows: starting on the third day after BLM inhalation, 1 mg/kg, administered via trachea infusion once every three days. And Anti-SDC4(93-121) 8 mg/kg was administered on the third and tenth days (reference dosage).
Total RNA was extracted from cells or lung tissue (10 mg) using Trizol reagent, and mRNA was reverse transcribed into cDNA using HiScript® II QRT SuperMix for qPCR (Vazyme, #R223-01). Real-time fluorescence quantitative PCR (RT-PCR) was performed using Hieff® qPCR SYB Green Master Mix (YEASEN, #11201ES08) to obtain the Ct value. The 2^−ΔΔCt method was used to obtain the relative expression level of mRNA in each group. Primers (Table 1) were purchased from Sangon Biotech.

[2] = test system: integrin-αvβ1, FAK/AKT, Smad2/3 and PKCα/NF-κB in BLM lung tissue; experiment: BLM-induced PF in mice: Western blot of lung tissue; format: in vivo, mouse; details: n=3
Method: as §1
20 mg of lung tissue was extracted with RIPA lysis buffer (Roche International Ltd., Bermuda, USA), and the protein concentration was determined using a BCA protein detection kit (Roche). Protein samples were separated by 10% sodium dodecyl sulfate polyacrylamide gel (SDS-PAGE) electrophoresis and transferred to a PVDF membrane. After blocking, the PVDF membrane was incubated with primary antibodies for α-SMA, Integrin-αV, SDC4, Integrin-β1, p-Smad3, FAK, and p-FAK (CST, #19245, #4711, #12236S, #34971, #9520S, #3285S, and #3284S) at 4°C overnight, followed by incubation with secondary antibodies (CST, #7074P2), development with ECL reagent (SAB), and acquisition of images with a chemiluminescence imaging system (ChemiScope 5600).

[3] = test system: BLM-induced PF, C57BL/6J mice; experiment: BLM-induced PF in mice: HE, Masson, hydroxyproline; format: in vivo, mouse
Method: C57BL/6J mice (male, 8-to 9-week old, 18–22 g, SPF grade) were purchased from Shanghai Slake Laboratory Animal Co., Ltd. [SCXK (Hu) 2022-0004, Shanghai, China]. […] The mice were housed in an SPF environment with 22–25°C, 46–65% humidity and 12 h/12 h light-dark alternation, with free access to water and food. This animal experiment was approved by the Experimental Animal Welfare Ethics Committee of Fujian Medical University (No. FJMU IACUC 2021-0465), and was carried out in accordance with the National Research Council's Guide for the Care and Use of Laboratory Animals.
as §1, §2
Lung tissue samples were paraffin-embedded, then sliced and dewaxed, and HE and Masson staining were performed respectively. After dehydration and sealing, images were collected and analyzed using a microscope.
100 mg of lung tissue was accurately weighed and processed according to the instructions of the hydroxyproline assay kit (Nanjing Jiancheng, Nanjing, China), and the absorbance was measured at a wavelength of 550 nm. The data were expressed as micrograms (µg) of hydroxyproline per mg of dry lung tissue.

[4] = test system: cell migration; details: ref [39]; cited from earlier work
Text: SDC4_87-131 is a synthetic peptide of the N87-M131 segment of the extracellular domain of SDC4 (Supplementary Figure S9A). […] Comparing the effects of ... || Syndecans and integrins collaboratively regulate FA formation and cell adhesion. PKCα is known to modulate integrin-mediated FAK phosphorylation and FA assembly. Inhibition of PKCα not only blocks NF-κB activation but also reduces FAK phosphorylation. Conversely, FAK activation can induce NF-κB activity, highlighting a bidirectional crosstalk between the SDC4/PKCα/NF-κB and integrin/FAK pathways.

[5] = test system: integrin-β1; experiment: BLM-induced PF in mice: flow cytometry of integrin-β1 activation in lung tissue; format: in vivo, mouse
Method: as §1
(§3) The single cell suspension of mouse lung tissue was obtained by grinding. After the remaining red blood cells were lysed with ACK Lysis Buffer (TBD, NH4CL2009), 1×10^6 cells/100 μL of cells were added with Fixable Viability Stain 780 (BD, #565388). After incubation at room temperature in the dark for 10-15 min, the suspension was washed twice with PBS containing 1%-2% FBS. The FCR antibody TruStain FcX™ PLUS (BD, #156603) was added to the cell suspension at a ratio of 0.25 μL:100 μL and blocked on ice for 10 min. Then, the antibody was incubated at an appropriate concentration and time according to the manufacturer's instructions. Antibodies include CD45 (Biolegend, #157619), CD140a (Thermo Fisher, #25-1401-82), SDC-4 (Sino Biological, #50726-R112-P), SP-C (Bioss, #bs-10067R-FITC) and Integrin-β1 (9Eg7, BD, 553715), and AF647 anti-Rat (CST, #4418S) was used as the secondary antibody. After incubation, cells were washed and resuspended, and detected using LSRFortessaX-20 (BD).

[6] = test system: integrin-β1; experiment: Flow cytometry of integrin-β1 activation (9EG7) in fibroblast; format: cell-based, mouse; details: SDC4_87-131 100 nM, C8 20 nM, 48 h
Method: Decellularized lung ECM (dECM) was prepared as described in previous study. 2 × 10^5 cells/mL NIH3T3 cells (mouse […], purchased from the Stem Cell Bank of the Chinese Academy of Sciences, Shanghai, China) were seeded on the dECM slices attached to the bottom of the culture dish and cultured in DMEM medium containing 0.5% fetal bovine serum (Gibco, Waltham, MA, USA) at 37°C and 5% CO2.
as §3

Substance: Ac-NHIPERAGSGSQVPTEPKKLEENEVIPKRISPVEESEDVSNKVSM-NH2 [SDC4_87-131]
- mRNA levels of α-SMA, FN, Col I, TGF-β1, IL-1β, IL-6 and TNF-α ([1]; 1 mg/kg ITD q3d, n=4–6): significantly reduced
- IL-6 downregulation vs C8 ([1]; n=4–5): stronger effect in downregulating IL-6 than C8
- expression level of integrin-αv ([2]; 1 mg/kg ITD q3d): significantly reduced the expression level of integrin-αv
- phosphorylation level of PKCα and nuclear content of NF-κB (p65) ([2]; SDC4_87-131 1 mg/kg, C8 10 mg/kg, Anti-SDC4(93-121) 8 mg/kg): could downregulate
- FAK/AKT phosphorylation [2]: inhibit FAK/AKT phosphorylation activation in both in vitro and in vivo experiments
- p-Smad2/3 effect vs C8 and Anti-SDC4 [2]: not significantly different from C8 and Anti-SDC4
- p-Smad2/3 protein levels [2]: reduced p-Smad2/3 protein levels
- alveolar structural disorders and collagen deposition ([3]; SDC4_87-131 1 mg/kg ITD q3d, C8 10 mg/kg IP qd, Anti-SDC4(93-121) 8 mg/kg ITD day 3 and 10, to day 21): could alleviate alveolar structural disorders and collagen deposition
- difference between treatments (HE, Masson, hydroxyproline) ([3]; SDC4_87-131, Anti-SDC4(93-121) and C8 compared): no significant difference
- cell adhesion and migration [4]: reduces cell adhesion and migration
- cell migration [4]: can inhibit cell migration comparably to the exogenous full-length SDC4
- integrin-β1 activation in nonimmune cells (CD45^-) [5]: abolished
- integrin-β1 activation effect vs C8 and Anti-SDC4(93-121) ([5]; CD45^- cells): equivalent to the effects of C8 and Anti-SDC4(93-121)
- dECM-PF-induced integrin-β1 activation [6]: significantly inhibited dECM-PF-induced integrin-β1 activation
